Results as given in US6783949B1, “Processes for determining whether a test substance contains lipases or lipase inhibitors” (Aventis Pharma Deutschland GmbH, priority 1999, dated 2004).
Read-outs that look alike come from different tables or passages of the source.

Columns and labels:
lipases, preferably HSL = target: T1, lipases, preferably HSL (Rattus norvegicus, UniProt P15304); assay: Synthesized NBD-acylglycerides as substrates of lipases; assay type: biochemical
T1 sequence (P15304 1-768 isoform P15304-2): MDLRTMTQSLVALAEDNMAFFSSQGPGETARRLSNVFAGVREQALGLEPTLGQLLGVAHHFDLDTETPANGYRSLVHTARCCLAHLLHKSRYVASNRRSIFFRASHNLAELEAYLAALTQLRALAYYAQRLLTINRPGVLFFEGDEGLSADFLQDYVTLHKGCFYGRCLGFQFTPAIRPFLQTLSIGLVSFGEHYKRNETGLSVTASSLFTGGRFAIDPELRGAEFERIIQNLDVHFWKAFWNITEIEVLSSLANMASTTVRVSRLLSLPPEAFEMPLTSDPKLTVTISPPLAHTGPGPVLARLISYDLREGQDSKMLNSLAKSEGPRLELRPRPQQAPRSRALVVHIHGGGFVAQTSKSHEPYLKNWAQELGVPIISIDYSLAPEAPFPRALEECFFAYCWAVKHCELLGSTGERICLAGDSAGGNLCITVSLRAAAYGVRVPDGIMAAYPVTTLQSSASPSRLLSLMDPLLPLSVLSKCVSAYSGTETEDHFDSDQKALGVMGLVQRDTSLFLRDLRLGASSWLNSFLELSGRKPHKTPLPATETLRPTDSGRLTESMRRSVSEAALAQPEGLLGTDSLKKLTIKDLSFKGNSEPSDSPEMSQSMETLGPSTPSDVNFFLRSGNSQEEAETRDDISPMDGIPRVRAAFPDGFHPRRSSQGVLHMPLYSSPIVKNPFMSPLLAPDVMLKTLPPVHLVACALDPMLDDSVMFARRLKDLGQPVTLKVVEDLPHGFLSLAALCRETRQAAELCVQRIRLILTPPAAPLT

HSL = target: T2, HSL (Rattus norvegicus, UniProt P15304); assay: Indirect NAG assay (extinction increase at 481 nm); assay type: biochemical; conditions: for Absorption at 481 nm: HSL 20 μg, 60 min, NAG 0.05 mg/ml
T2 construct: The partially purified HSL can be stored at −70° C. for 4 to 6 weeks; from tissue; host or cells: rat epididymal fat cells (male Wistar rats)
T2 sequence (P15304 1-768 isoform P15304-2): T1 sequence (P15304 1-768 isoform P15304-2)
Procedure: A typical reaction is carried out at 30° C. for 60 min, for example in 1.5 ml Eppendorf vessels or 96-hole plates. […] 180 μl of the substrate solution (20 μg/ml of phosphatidylcholine, 10 μg/ml of phosphatidylinositol, 50 μg/ml of NAG in assay buffer) are added. After a preincubation for 15 min at 30° C., 20 μl of HSL in assay buffer are pipetted in and the extinction is immediately measured (see above) at 481 nm in a cuvette photometer (0.5 ml cuvette) or microtiter plate reader. After a certain incubation time, which is variable and depends on the chosen enzyme concentration and can be between 2 and 240 minutes, in this case incubation at 30° C. for 60 min, the extinction is measured again. The increase in the extinction in the yellow region, in this case at 481 nm, is a measure of the enzyme activity.
Isolated rat fat cells are obtained from epididymal fatty tissue from untreated male rats (Wistar, 220-250 g) by collagenase treatment according to published processes. The fat cells from 10 rats are washed three times by flotation with 50 ml each of homogenization buffer ([…], pH 7.4, 0.25 M sucrose, 1 mM ethylenediamine-N,N,N′,N′-tetraacetic acid (EDTA), 1 mM dithiothreitol (DTT), 10 μg/ml of leupeptin, 10 μg/ml of antipain, 20 μg/ml of pepstatin) and finally taken up in 10 ml of homogenization buffer. The fat cells are homogenized in a Teflon-in-glass homogenizer (Braun-Melsungen) by 10 strokes at 1500 rpm and 15° C. The homogenizate is centrifuged (Sorvall SM24 tubes, 5000 rpm, 10 min, 4° C.). The […] between the overlying fatty layer and the pellet is removed and the centrifugation is repeated. The […] resulting from this is centrifuged again (Sorvall SM24 tubes, 20,000 rpm, 45 min, 4° C.). […] After incubation for 60 min at 4° C. (shake at intervals of 15 min), the batch is centrifuged (Sorvall SM24 tubes, 3000 rpm, 10 min, 4° C.). The supernatant is brought to pH 5.2 by addition of glacial acetic acid and incubated at 4° C. for 30 min. […] The suspension is dialyzed overnight at 4° C. against 25 mM TRIS/HCl, pH 7.4, 50% glycerol, 1 mM DTT, and 10 μg/ml of leupeptin, pepstatin, and antipain and then applied to a hydroxylapatite column (0.1 g per 1 ml of suspension, equilibrated with 10 mM potassium phosphate, pH 7.0, 30% glycerol, 1 mM DTT). The column is washed with four volumes of equilibration buffer at a flow rate of 20 to 30 ml/h. The HSL is eluted with a volume of equilibration buffer which contains 0.5 M potassium phosphate, then dialyzed (see above) and concentrated 5 to 10 times by ultrafiltration (Amicon Diaflo PM 10 filter) at 4° C. The partially purified HSL can be stored at −70° C. for 4 to 6 weeks.
6 mg of phosphatidylcholine and 6 mg of phosphatidylinositol are dissolved in 1 ml of chloroform each. 10 mg of NAG are dissolved in 1 ml of chloroform. […] The chloroform (225 μl total volume) is completely removed by overblowing with a stream of N2. The dried substrate can be stored at 4° C. for up to three days. For the preparation of the phospholipid vesicles/micelles having intercalated NAG (on the test day), the dried substrate is taken up in 20 ml of assay buffer (25 mM TRIS/HCl, pH 7.4; 150 mM NaCl) and two ultrasonic treatments with an ultrasonic probe (Branson Sonifier type 11, standard microtip): 1st treatment setting 2, 2×1 min, in between in each case 1 min on ice; 2nd treatment setting 4, 2×1 min, in between in each case 1 min on ice. […] Before use as a substrate (within the next 2 h), the solution is additionally incubated on ice for 15 min.
The assay is carried out at 30° C. for 60 min in 1.5 ml Eppendorf vessels or 96-hole plates.

[1] = Substrate stability towards detergents and solvents (extinction at 550 nm); assay type: physicochemical; conditions: for Absorption at 550 nm: NAG 0.05 mg/ml, 37° C., 180 min

| Molecule | Activity as substrate of lipases (lipases, preferably HSL) | Absorption at 550 nm ([1]; agent 0.05 %) | Absorption at 550 nm ([1]; agent 0.1 %) | Absorption at 550 nm ([1]; agent 0.2 %) | Absorption at 550 nm ([1]; agent 0.5 %) | Absorption at 550 nm ([1]; agent 1 %) | Absorption at 550 nm ([1]; agent 2 %) | Absorption at 550 nm ([1]; agent 5 %) | Absorption at 550 nm ([1]; agent 10 %) | Effect on the HSL activity (HSL) | other results |
| --- | --- | --- | --- | --- | --- | --- | --- | --- | --- | --- | --- |
| O=C(CCCCCCCCCCCNc1ccc([N+](=O)[O-])c2nonc12)OC[C@H](O)CO [Compound (3b), (R)-2,3-dihydroxypropyl 12-(7-nitrobenzo[1,2,5]oxadiazol-4-ylamino)dodecanoate] | identical biological activity | – | – | – | – | – | – | – | – | – | – |
| CC(=O)OCC(COC(=O)CCCCCCCCCCCNc1ccc([N+](=O)[O-])c2nonc12)OC(C)=O (stereo not drawn) [Compound (4), 2-Acetoxy-3-[12-(7-nitrobenzo[1,2,5]oxadiazol-4-ylamino)-dodecanoyloxy]propyl acetate] | decrease in activity | – | – | – | – | – | – | – | – | – | – |
| CN(C)C=O [DMF, N,N-Dimethylformamide] | – | 3121 ± 294 arb. units | 2655 ± 308 arb. units | 1952 ± 299 arb. units | 1234 ± 234 arb. units | 654 ± 112 arb. units | 251 ± 82 arb. units | 105 ± 42 arb. units | 38 ± 10 arb. units | significant loss in activity | NAG released from the phospholipid/vesicle structures ([1]; 1% agent): over 80% |
| CO [Methanol] | – | 3056 ± 243 arb. units | 3102 ± 276 arb. units | 2945 ± 241 arb. units | 2683 ± 210 arb. units | 2534 ± 191 arb. units | 1985 ± 165 arb. units | 1438 ± 121 arb. units | 475 ± 92 arb. units | increase in the HSL activity | – |
| CC(C)=O [acetone] | – | – | – | – | – | – | – | – | – | increase in the HSL activity | – |

The next lines start with results.

| Activity as substrate of lipases (lipases, preferably HSL) | Absorption at 550 nm ([1]; agent 0.05 %) | Absorption at 550 nm ([1]; agent 0.1 %) | Absorption at 550 nm ([1]; agent 0.2 %) | Absorption at 550 nm ([1]; agent 0.5 %) | Absorption at 550 nm ([1]; agent 1 %) | Absorption at 550 nm ([1]; agent 2 %) | Absorption at 550 nm ([1]; agent 5 %) | Absorption at 550 nm ([1]; agent 10 %) | Molecule | Effect on the HSL activity (HSL) | other results |
| --- | --- | --- | --- | --- | --- | --- | --- | --- | --- | --- | --- |
| decrease in activity | – | – | – | – | – | – | – | – | 2-Hydroxy-3-[12-(7-nitrobenzo[1,2,5]oxadiazol-4-ylamino)-odecanoyloxy]propyl hexadecanoate [Compound (6)] | – | – |
| identical biological activity | – | – | – | – | – | – | – | – | O=C(CCCCCCCCCCCNc1ccc([N+](=O)[O-])c2nonc12)OC[C@@H](O)CO [(3a), (S)-2,3-Dihydroxypropyl 12-(7-nitrobenzo[1,2,5]oxadiazol-4-ylamino) dodecanoate] | – | – |
| – | 3003 ± 259 arb. units | 3199 ± 302 arb. units | 2984 ± 273 arb. units | 3055 ± 289 arb. units | 2845 ± 254 arb. units | 2317 ± 266 arb. units | 1432 ± 187 arb. units | 372 ± 51 arb. units | C[S+](C)[O-] [DMSO, Dimethyl sulfoxide] | – | Reduction of the enzyme activity (HSL; 0.5% agent): 10%; Decrease in the enzyme activity (arithmetically) (HSL; 1% agent, corrected for substrate dissolution): 20%; Absorption at 481 nm (HSL; agent 0.05 %): 3423 ± 286 arb. units; Absorption at 481 nm (HSL; agent 0.1 %): 3320 ± 319 arb. units; Absorption at 481 nm (HSL; agent 0.2 %): 3301 ± 276 arb. units; Absorption at 481 nm (HSL; agent 0.5 %): 3199 ± 235 arb. units; Absorption at 481 nm (HSL; agent 1 %): 3156 ± 196 arb. units; Absorption at 481 nm (HSL; agent 2 %): 1488 ± 213 arb. units; Absorption at 481 nm (HSL; agent 5 %): 945 ± 169 arb. units; Absorption at 481 nm (HSL; agent 10 %): 272 ± 42 arb. units; Reduction of the amount of released NBD-FA (HSL; up to 1% agent): approximately 10%; Decrease of the extinction (amount of substrate) ([1]; 1% agent): 10% |
| – | 3147 ± 288 arb. units | 3056 ± 213 arb. units | 3097 ± 253 arb. units | 2995 ± 231 arb. units | 2834 ± 256 arb. units | 2510 ± 194 arb. units | 1935 ± 163 arb. units | 873 ± 103 arb. units | CCO [Ethanol] | – | Absorption at 481 nm (HSL; agent 0.05 %): 3776 ± 253 arb. units; Absorption at 481 nm (HSL; agent 0.1 %): 4093 ± 387 arb. units; Absorption at 481 nm (HSL; agent 0.2 %): 4894 ± 325 arb. units; Absorption at 481 nm (HSL; agent 0.5 %): 4231 ± 296 arb. units; Absorption at 481 nm (HSL; agent 1 %): 3541 ± 294 arb. units; Absorption at 481 nm (HSL; agent 2 %): 2143 ± 215 arb. units; Absorption at 481 nm (HSL; agent 5 %): 1327 ± 143 arb. units; Absorption at 481 nm (HSL; agent 10 %): 423 ± 55 arb. units; Effect on the HSL activity (HSL; between 0.1 and 1% agent): increase in the HSL activity |
| – | 3063 ± 288 arb. units | 2935 ± 254 arb. units | 2769 ± 275 arb. units | 2506 ± 301 arb. units | 2296 ± 252 arb. units | 1413 ± 178 arb. units | 603 ± 89 arb. units | 102 ± 12 arb. units | CCCCCCCCCCCCOS(=O)(=O)[O-].[Na+] [SDS, Sodium dodecyl sulfate] | – | – |
| – | 3166 ± 308 arb. units | 3247 ± 253 arb. units | 3119 ± 277 arb. units | 2954 ± 248 arb. units | 2154 ± 199 arb. units | 956 ± 101 arb. units | 489 ± 77 arb. units | 167 ± 45 arb. units | Triton ® X-100 [TX-100] | increase in the HSL activity | – |
